Source: patent US9605064B2, “Methods and compositions for treatment of skin disorders” (AbbVie Biotechnology Ltd, priority 2006, dated 2017)
Marks after values point to notes of the source that are not given here.

Key:
[1] = system: patients with moderate to severe chronic plaque psoriasis; assay: DLQI, Phase II 12-week placebo-controlled trial with 48-week extension; assay type: in vivo, human; settings: for Mean change in DLQI from baseline at Week 60: observed values; for DLQI = 0 / DLQI = 1 / DLQI = 2 / DLQI ≧ 3 / patients who achieved DLQI=0: pooled arms
From the text: The DLQI is a validated instrument used to measure disease impact on daily function.
The DLQI is a validated instrument used to assess dermatologic-related functional limitations, and was used as the patient related outcomes (PRO) measure. The DLQI consists of ten items and an overall scoring range of 0-30, where higher scores represent greater quality of life impairment and lower scores represent lower quality of life impairment. The DLQI also includes well-established properties of reliability and validity for the DLQI total score in a dermatology setting and measures six subcategories: symptoms and feelings, daily activities, leisure, work/school, personal relationships, and treatment.
Patients who discontinued before the time point were not included in this analysis. Ranges of DLQI scores were evaluated for their correspondence to categories of disease impact and are described below in Table 1.
PROs were assessed using the DLQI. The DLQI is a validated instrument used to assess dermatologic-related functional limitations.

[2] = system: patients with moderate to severe chronic plaque psoriasis; assay: PGA, CHAMPION 16-week Phase III trial; assay type: in vivo, human; settings: ITT, missing PGA = not achieving
Method: Analytical methods included the following: • Intention-to-treat analyses were performed for all randomized patients • Missing data were analyzed using non-responder imputation (NRI) • PASI 75 at Week 16 (primary endpoint) was analyzed using adjusted Cochran-Mantel-Haenszel test.

[3] = system: adult patients with moderate to severe chronic plaque psoriasis; assay: PASI response and loss of adequate response, REVEAL 52-week Phase III trial; assay type: in vivo, human; settings: for PASI 100 Response Rates, % Patients: n = 814, ITT, NRI; for Mean Percentage PASI Improvement During Period B: relative to baseline, patients randomized to adalimumab who entered Period B, as observed; for patients with loss of adequate response: Week 33 PASI 75 responders re-randomized to continue adalimumab in period C, by Week 52
From the text: The main inclusion criteria for this study included a clinical diagnosis of psoriasis for ≧6 months and affected body surface area (BSA)≧10% and PASI≧12. The main exclusion criteria included prior use of systemic or biologic anti-TNF therapy. The washout period included two weeks for topical agents and UVB, 4 weeks for PUVA and non-biologic systemic therapies, and 12 weeks for all biologic therapies. The two co-primary endpoints were: • Percentage of patients achieving PASI≧75 at Week 16 • Percentage of patients, among Week 33 PASI≧75 responders, losing an adequate response after Week 33, characterized by: • PASI<50 (relative to baseline) and • At least a 6 point increase in PASI
Period A was double-blind, placebo-controlled, and lasted from weeks 0-16. […] At Week 16 patients who achieved ≧PASI 75 improvement continued into Period B, while those patients having <PASI 75 improvement entered the open label extension (OLE) study (FIG. 7).
Period B was open-label and lasted from Weeks 17-33. […] Patients who achieved ≧PASI 75 response at Week 33 entered Period C.
Period C was a double-blind, placebo-controlled which was held from weeks 34-52.
Various analytical methods were used in the study. Intention-to-treat (ITT) analyses were performed for all randomized patients in Periods A and C. […] Week 24 results from NRI analysis include pooled efficacy outcomes from OLE and Period B. After Week 24, non-overlapping OLE and Period B study visits prevent complete pooling of efficacy outcomes. Continuous variables were analyzed as observed during Period B
The REVEAL study had two independent primary endpoints. The first endpoint was the proportion of patients achieving 75 percent improvement in skin clearance after 16 weeks. The second endpoint was the proportion of patients who lost adequate response through week 52 after stopping treatment with HUMIRA at week 33. Signs of psoriasis were evaluated using the Psoriasis Area and Severity Index (PASI), among other measures. […] At week 52, the start of the OLE period, patients randomized at week 33, as well as patients originally in the placebo group at week 0, were able to enter the OLE period.

[4] = system: patients with severe psoriasis who were non-responders to high-dosage etanercept; assay: Adverse events, open-label adalimumab in non-responders to high-dosage etanercept; assay type: in vivo, human; settings: 12 weeks
Method: Details on clinical course and adverse events were recorded, along with measurements of PASI and Dermatology Life Quality Index (DLQI) at baseline and Weeks 2, 4, 8, and 12.

[5] = system: adult patients with moderate to severe chronic plaque psoriasis; settings: in vivo
[6] = PASI 75-99 responders who had DLQI>0 at Week 60
[7] = PASI improvement 50-74 (n = 18), Week 60
[8] = PASI improvement 75-99 (n = 54), Week 60
[9] = PASI improvement 100 (n = 29), Week 60
[10] = PASI improvement <50 (n = 5), Week 60
[11] = patients with PASI 75-99, Week 60
[12] = patients with PASI 100, Week 60

Substance: Adalimumab: a human anti-TNF mAb, described in U.S. Pat. No. 6,090,382 as D2E7 (HUMIRA, Abbott Laboratories)
- patients with change from large/extremely large DLQI impact at baseline to no/small impact ([1]; 40 mg eow, week 12): 85%
- patients with change from large/extremely large DLQI impact at baseline to no/small impact ([1]; 40 mg eow, week 24): 85%
- patients with change from large/extremely large DLQI impact at baseline to no/small impact ([1]; 40 mg eow, week 36): 83%
- patients with change from large/extremely large DLQI impact at baseline to no/small impact ([1]; 40 mg eow, week 60): 83%
- mean change in DLQI ([1]; 40 mg weekly, Week 12): −11.5*
- patients with change from large/extremely large DLQI impact at baseline to no/small impact ([1]; 40 mg weekly, Week 12): 86%
- patients with change from large/extremely large DLQI impact at baseline to no/small impact ([1]; 40 mg weekly, week 24): 88%
- patients with change from large/extremely large DLQI impact at baseline to no/small impact ([1]; 40 mg weekly, week 36): 91%
- patients with change from large/extremely large DLQI impact at baseline to no/small impact ([1]; 40 mg weekly, week 60): 100%
- Mean change in DLQI from baseline at Week 60 ([1]; PASI 50-74): −8.8
- Mean change in DLQI from baseline at Week 60 ([1]; PASI 75-99): −11.5
- embarrassment/self-consciousness because of skin condition [1, 6]: approximately 20%
- persistent symptoms of itching, soreness, pain, or stinging of the skin [1, 6]: approximately 50%
- Mean change in DLQI from baseline at Week 60 ([1]; PASI 100): −11.1
- Mean change in DLQI from baseline at Week 60 ([1]; PASI <50): −6.0
- DLQI = 0 [1, 7]: 5 (28) n (%)
- DLQI = 1 [1, 7]: 3 (17) n (%)
- DLQI = 2 [1, 7]: 3 (17) n (%)
- DLQI ≧ 3 [1, 7]: 7 (39) n (%)
- DLQI = 0 [1, 8]: 20 (37) n (%)
- DLQI = 1 [1, 8]: 19 (35) n (%)
- DLQI = 2 [1, 8]: 4 (7) n (%)
- DLQI ≧ 3 [1, 8]: 11 (20) n (%)
- DLQI = 0 [1, 9]: 23 (79) n (%)
- DLQI = 1 [1, 9]: 3 (10) n (%)
- DLQI = 2 [1, 9]: 3 (10) n (%)
- DLQI ≧ 3 [1, 9]: 0 (0) n (%)
- DLQI = 0 [1, 10]: 0 (0) n (%)
- DLQI = 1 [1, 10]: 1 (20.0) n (%)
- DLQI = 2 [1, 10]: 2 (40) n (%)
- DLQI ≧ 3 [1, 10]: 2 (40) n (%)
- mean change in DLQI ([1]; adalimumab-treated patients): ≥ 10 points
- DLQI mean change from baseline ([1]; baseline PASI ≧10 and DLQI >10, 40 mg eow, Week 12): −15
- DLQI mean change from baseline ([1]; baseline PASI ≧10 and DLQI >10, 40 mg eow, Week 24): −14
- DLQI mean change from baseline ([1]; baseline PASI ≧10 and DLQI >10, 40 mg eow, Week 36): −15
- DLQI mean change from baseline ([1]; baseline PASI ≧10 and DLQI >10, 40 mg eow, Week 60): −15
- DLQI mean change from baseline ([1]; baseline PASI ≧10 and DLQI >10, 40 mg weekly, Week 12): −16
- DLQI mean change from baseline ([1]; baseline PASI ≧10 and DLQI >10, 40 mg weekly, Week 24): −17
- DLQI mean change from baseline ([1]; baseline PASI ≧10 and DLQI >10, 40 mg weekly, Week 36): −18
- DLQI mean change from baseline ([1]; baseline PASI ≧10 and DLQI >10, 40 mg weekly, Week 60): −17
- DLQI mean change from baseline ([1]; baseline PASI ≧10 and DLQI >10, placebo/adalimumab 40 mg eow, Week 24): −12
- DLQI mean change from baseline ([1]; baseline PASI ≧10 and DLQI >10, placebo/adalimumab 40 mg eow, Week 36): −14
- DLQI mean change from baseline ([1]; baseline PASI ≧10 and DLQI >10, placebo/adalimumab 40 mg eow, Week 60): −12
- mean DLQI score ([1]; baseline PASI ≧10 and DLQI >10, weekly, Week 60): 0.7
- Mean improvement in DLQI ([1]; from dosage escalation to Week 60, 18 of the 30 patients who switched to weekly dosing): 2.1
- patients who achieved DLQI=0 ([1]; of the total 106 patients receiving adalimumab at Week 60): 48 patients
- patients who achieved DLQI=0 ([1]; patients receiving adalimumab at Week 60): approximately 45%
- patients who achieved a DLQI=0 ([1]; patients with 50-74, Week 60): 28%
- mean change in DLQI from baseline ([1]; patients with PASI 50-74, Week 60): −8
- mean change in DLQI from baseline [1, 11]: −11.5
- patients who achieved a DLQI=0 [1, 11]: 37%
- mean change in DLQI from baseline [1, 12]: −11.1
- patients who achieved a DLQI=0 [1, 12]: 79%
- mean change in DLQI from baseline ([1]; patients with PASI<50, Week 60): −6
- patients with change from large/extremely large DLQI impact at baseline to no/small impact ([1]; placebo patients switched to adalimumab at week 12, week 24): 67%
- patients with change from large/extremely large DLQI impact at baseline to no/small impact ([1]; placebo patients switched to adalimumab at week 12, week 36): 79%
- patients with change from large/extremely large DLQI impact at baseline to no/small impact ([1]; placebo patients switched to adalimumab at week 12, week 60): 71%
- patients with change from large/extremely large DLQI impact at baseline to no/small impact ([1]; randomized to adalimumab, week 12): 85%
- PGA “Clear” or “Minimal” Responses, % Patients ([2]; Week 4): 7*† %
- PGA “Clear” or “Minimal” Responses, % Patients ([2]; Week 8): 27‡§ %
- PGA “Clear” or “Minimal” Responses, % Patients ([2]; Week 12): 48‡§ %
- PGA “Clear” or “Minimal” Responses, % Patients ([2]; Week 16): 52‡§ %
- PASI 100 Response Rates, % Patients ([3]; Week 4, double-blind): 0.9%
- PASI 100 Response Rates, % Patients ([3]; Week 8, double-blind): 7.1* %
- PASI 100 Response Rates, % Patients ([3]; Week 12, double-blind): 14.4* %
- PASI 100 Response Rates, % Patients ([3]; Week 16, double-blind): 20* %
- Mean Percentage PASI Improvement During Period B ([3]; Week 16): 91.9%
- PASI 100 Response Rates, % Patients ([3]; Week 24, open-label, pooled Period B and OLE): 22.5* %
- Mean Percentage PASI Improvement During Period B ([3]; Week 24): 91.2%
- Mean Percentage PASI Improvement During Period B ([3]; Week 33): 89.3%
- patients with loss of adequate response [3]: 4.9* %
- patients with loss of adequate response ([3]; listed as adalimumab): 5%
- Serious Adverse Events [4]: No serious adverse events were reported
- Infectious AEs, percentage [5]: 28.9‡ %
- Upper Respiratory Tract Infection [5]: 59 (7.2) n (%)
